Laboratory results published in ChEMBL document CHEMBL5505990, “Novel aroyl guanidine anti-trypanosomal compounds that exert opposing effects on parasite energy metabolism” (Eur J Med Chem, 2024).
Calls of active or inactive are those of the source. The calls are words filed in the database; no cut-off is given here.

Tests used:
[1] = test system: Trypanosoma brucei brucei; experiment: Disruption of nucleotide metabolism in bloodstream Trypanosoma brucei brucei 427 assessed as accumulation of purine/pyrimidine base forms at 1 uM incubated for 5 hrs; assay type: functional, organism-based
[2] = test system: Trypanosoma brucei brucei; experiment: Disruption of nucleotide metabolism in bloodstream Trypanosoma brucei brucei 427 assessed as depletion of deoxy-UTP at 1 uM incubated for 5 hrs; assay type: functional, organism-based
[3] = test system: Trypanosoma brucei brucei; experiment: Effect on acetyl-CoA level in bloodstream Trypanosoma brucei brucei 427 assessed as increase in pyruvate level at 1 uM incubated for 5 hrs; assay type: functional
[4] = test system: Trypanosoma brucei brucei; experiment: Effect on stearoyl-CoA level in bloodstream Trypanosoma brucei brucei 427 assessed as increase in pyruvate level at 1 uM incubated for 5 hrs; assay type: functional
[5] = test system: Trypanosoma brucei brucei; experiment: Upregulation of glycolytic flux in bloodstream Trypanosoma brucei brucei 427 assessed as increase in pyruvate level at 1 uM incubated for 5 hrs; assay type: functional
[6] = test system: Trypanosoma brucei brucei; experiment: Induction of glycolysis in bloodstream Trypanosoma brucei brucei 427 assessed as increase in succinate level at 1 uM incubated for 5 hrs; assay type: functional
[7] = Cytotoxicity against HEK293 cells; assay type: toxicity, cell-based; settings: human
[8] = test system: Trypanosoma brucei brucei; experiment: Effect on free CoA level in bloodstream Trypanosoma brucei brucei 427 assessed as increase in pyruvate level at 1 uM incubated for 5 hrs; assay type: functional
[9] = test system: Trypanosoma brucei brucei; experiment: Anti-trypanosomal activity against Trypanosoma brucei brucei; assay type: functional, organism-based
[10] = test system: Trypanosoma brucei brucei; experiment: Disruption of nucleotide metabolism in bloodstream Trypanosoma brucei brucei 427 assessed as accumulation of NDP at 1 uM incubated for 5 hrs; assay type: functional, organism-based
[11] = test system: Trypanosoma brucei brucei; experiment: Effect on carbohydrate metabolism in bloodstream Trypanosoma brucei brucei 427 at 1 uM incubated for 5 hrs by pathway enrichment analysis; assay type: functional
[12] = test system: Trypanosoma brucei brucei; experiment: Downregulation of 6-phosphogluconate level in bloodstream Trypanosoma brucei brucei 427 assessed as increase in pyruvate level at 1 uM incubated for 5 hrs; assay type: functional
[13] = test system: Trypanosoma brucei brucei; experiment: Upregulation of carnitine to acetyl-carnitine ratio in bloodstream Trypanosoma brucei brucei 427 assessed as increase in pyruvate level at 1 uM incubated for 5 hrs; assay type: functional
[14] = test system: Trypanosoma brucei brucei; experiment: Disruption of nucleotide metabolism in bloodstream Trypanosoma brucei brucei 427 assessed as depletion of GTP at 1 uM incubated for 5 hrs; assay type: functional, organism-based
[15] = test system: Trypanosoma brucei brucei; experiment: Disruption of nucleotide metabolism in bloodstream Trypanosoma brucei brucei 427 assessed as depletion of deoxy-ATP at 1 uM incubated for 5 hrs; assay type: functional, organism-based
[16] = test system: Trypanosoma brucei brucei; experiment: Disruption of nucleotide metabolism in bloodstream Trypanosoma brucei brucei 427 assessed as depletion of deoxy-CTP at 1 uM incubated for 5 hrs; assay type: functional, organism-based
[17] = test system: Trypanosoma brucei brucei; experiment: Disruption of nucleotide metabolism in bloodstream Trypanosoma brucei brucei 427 assessed as depletion of deoxy-GTP at 1 uM incubated for 5 hrs; assay type: functional, organism-based
[18] = test system: Trypanosoma brucei brucei; experiment: Disruption of nucleotide metabolism in bloodstream Trypanosoma brucei brucei 427 assessed as accumulation of nucleosides at 1 uM incubated for 5 hrs; assay type: functional, organism-based
[19] = test system: Trypanosoma brucei brucei; experiment: Effect on palmitoyl-CoA level in bloodstream Trypanosoma brucei brucei 427 assessed as increase in pyruvate level at 1 uM incubated for 5 hrs; assay type: functional
[20] = test system: Trypanosoma brucei brucei; experiment: Induction of glycolysis in bloodstream Trypanosoma brucei brucei 427 assessed as increase in glycerol level at 1 uM incubated for 5 hrs; assay type: functional
[21] = test system: Trypanosoma brucei brucei; experiment: Downregulation of NADPH level in bloodstream Trypanosoma brucei brucei 427 assessed as increase in pyruvate level at 1 uM incubated for 5 hrs; assay type: functional
[22] = test system: Trypanosoma brucei brucei; experiment: Effect on free carnitine level in bloodstream Trypanosoma brucei brucei 427 assessed as increase in pyruvate level at 1 uM incubated for 5 hrs; assay type: functional
[23] = test system: Trypanosoma brucei brucei; experiment: Disruption of nucleotide metabolism in bloodstream Trypanosoma brucei brucei 427 assessed as depletion of ATP at 1 uM incubated for 5 hrs relative to control; assay type: functional
[24] = test system: Trypanosoma brucei brucei; experiment: Disruption of nucleotide metabolism in bloodstream Trypanosoma brucei brucei 427 assessed as depletion of UTP at 1 uM incubated for 5 hrs; assay type: functional, organism-based
[25] = test system: Trypanosoma brucei brucei; experiment: Effect on nucleotide metabolism in bloodstream Trypanosoma brucei brucei 427 at 1 uM incubated for 5 hrs by pathway enrichment analysis; assay type: functional
[26] = test system: Trypanosoma brucei brucei; experiment: Opposing effect on metabolism in bloodstream Trypanosoma brucei brucei 427 at 1 uM incubated for 5 hrs by LC-MS based principal component analysis; assay type: functional, organism-based
[27] = test system: Trypanosoma brucei brucei; experiment: Disruption of nucleotide metabolism in bloodstream Trypanosoma brucei brucei 427 assessed as depletion of CTP at 1 uM incubated for 5 hrs; assay type: functional, organism-based
[28] = Selectivity ratio of IC50 for HEK293 cells to IC50 for Trypanosoma brucei brucei; assay type: toxicity; settings: human, read-out: Ratio IC50
[29] = test system: Trypanosoma brucei brucei; experiment: Induction of glycolysis in bloodstream Trypanosoma brucei brucei 427 assessed as increase in pyruvate level at 1 uM incubated for 5 hrs; assay type: functional
[30] = test system: Trypanosoma brucei brucei; experiment: Effect on acetyl-carnitine level in bloodstream Trypanosoma brucei brucei 427 assessed as increase in pyruvate level at 1 uM incubated for 5 hrs; assay type: functional
[31] = test system: Trypanosoma brucei brucei; experiment: Disruption of nucleotide metabolism in bloodstream Trypanosoma brucei brucei 427 assessed as accumulation of NMP at 1 uM incubated for 5 hrs; assay type: functional, organism-based
[32] = test system: Trypanosoma brucei brucei; experiment: Disruption of nucleotide metabolism in bloodstream Trypanosoma brucei brucei 427 assessed as depletion of ATP at 1 uM incubated for 5 hrs; assay type: functional, organism-based
[33] = test system: Trypanosoma brucei brucei; experiment: Disruption of nucleotide metabolism in bloodstream Trypanosoma brucei brucei 427 assessed as accumulation of AMP at 1 uM incubated for 5 hrs; assay type: functional, organism-based
[34] = test system: Trypanosoma brucei brucei; experiment: Disruption of nucleotide metabolism in bloodstream Trypanosoma brucei brucei 427 assessed as depletion of NTP at 1 uM incubated for 5 hrs; assay type: functional, organism-based
[35] = test system: Trypanosoma brucei brucei; experiment: Anti-trypanosomal activity against Trypanosoma brucei brucei incubated for 48 hrs by alamar blue assay; assay type: functional, organism-based
[36] = test system: Trypanosoma brucei brucei; experiment: Anti-trypanosomal activity against Trypanosoma brucei brucei at 10 uM relative to control; assay type: functional
[37] = test system: Trypanosoma brucei brucei; experiment: Anti-trypanosomal activity against Trypanosoma brucei brucei at 42 uM relative to control; assay type: functional
[38] = Cytotoxicity against HEK293 cells assessed as inhibition of cell viability at 83 uM relative to control; assay type: toxicity, cell-based; settings: human, read-out: INH
[39] = test system: Trypanosoma brucei brucei; experiment: Disruption of nucleotide metabolism in bloodstream Trypanosoma brucei brucei 427 assessed as fold increase in AMP at 1 uM incubated for 5 hrs; assay type: functional

Cc1cc(Br)ccc1/N=C(\NCCN1CCOCC1)NC(=O)c1ccccc1
Activity [1]: Active
Activity [2]: Active
Activity [3]: inactive
Activity [4]: Active
Activity [5]: Active
Activity [6]: Active
IC50 [7]: > 83 µM
Activity [8]: Active
IC50 [9]: 2.5 µM
Activity [10]: Active
Activity [11]: Active
Activity [12]: Active
Activity [13]: Active
Activity [14]: Active
Activity [15]: Active
Activity [16]: Active
Activity [17]: Active
Activity [18]: Active
Activity [19]: Active
Activity [20]: Active
Activity [21]: Active
Activity [22]: Active
Activity [23]: 25%
Activity [24]: Active
Activity [25]: Active
Activity [26]: Active
Activity [27]: Active
selectivity ratio [28]: > 33
Activity [29]: Active
Activity [30]: Active
Activity [31]: Active

CCc1ccccc1/N=C(\NCCN1CCOCC1)NC(=O)c1ccc(C)cc1
Activity [1]: inactive
Activity [3]: Active
Activity [4]: inactive
Activity [5]: inactive
Activity [6]: inactive
Activity [32]: inactive
IC50 [7]: > 83 µM
Activity [8]: inactive
IC50 [9]: 4.4 µM
Activity [10]: inactive
Activity [11]: Active
Activity [12]: inactive
Activity [13]: inactive
Activity [33]: inactive
Activity [18]: inactive
Activity [19]: inactive
Activity [34]: inactive
Activity [20]: inactive
Activity [21]: inactive
Activity [22]: inactive
Activity [25]: Active
Activity [26]: Active
selectivity ratio [28]: > 19
Activity [29]: inactive
Activity [30]: inactive
Activity [31]: inactive

CCc1ccccc1/N=C(\NCCN1CCOCC1)NC(=O)c1ccccc1
Activity [1]: inactive
Activity [3]: Active
Activity [4]: inactive
Activity [5]: inactive
Activity [6]: inactive
Activity [8]: inactive
Activity [10]: inactive
Activity [12]: inactive
Activity [13]: inactive
Activity [18]: inactive
Activity [19]: inactive
Activity [34]: inactive
Activity [20]: inactive
Activity [21]: inactive
Activity [22]: inactive
IC50 [35]: 2.6 µM
selectivity ratio [28]: ≥ 29
Activity [29]: inactive
Activity [30]: inactive
Activity [31]: inactive

CCc1ccccc1/N=C(\NCCN1CCOCC1)NC(=O)c1cccc(Cl)c1
inhibition at 10 µM [36]: 87%
inhibition at 42 µM [37]: 68%
cytotoxicity at 83 µM [38]: 67%

Cc1ccc(/N=C(\NCCN2CCOCC2)NC(=O)c2ccccc2)c(Cl)c1
Activity [2]: Active
Activity [3]: inactive
inhibition at 10 µM [36]: 54%
Activity [4]: Active
Activity [5]: Active
Activity [6]: Active
Activity [32]: Active
Activity [8]: Active
Activity [12]: Active
Activity [13]: Active
Activity [14]: Active
Activity [15]: Active
Activity [16]: Active
Activity [17]: Active
fold change (FC) [39]: 7
Activity [19]: Active
Activity [20]: Active
Activity [21]: Active
Activity [22]: Active
Activity [24]: Active
Activity [27]: Active
Activity [29]: Active
Activity [30]: Active
